Results: article PMC4551947 (Nucleic Acids Research, 2015)

Key:
[1] = target: T1, NTD (isolated N-terminal SPOUT domain of EcTrmJ) (Escherichia coli, UniProt P0AE01); assay: isothermal titration calorimetry; assay type: binding; conditions: 25 °C, 20 mM Tris-HCl pH 7.5, 100 mM NaCl, 10 mM MgCl2
T1 sequence (P0AE01 1-170): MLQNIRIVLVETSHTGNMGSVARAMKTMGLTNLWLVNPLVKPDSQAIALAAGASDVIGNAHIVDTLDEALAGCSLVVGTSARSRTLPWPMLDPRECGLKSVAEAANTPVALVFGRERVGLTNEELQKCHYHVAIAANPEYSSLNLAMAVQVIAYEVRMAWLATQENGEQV

[2] = target: the molecule itself; assay: crystal structure

Nc1ncnc2c1ncn2[C@@H]1O[C@H](CSCC[C@H](N)C(=O)O)[C@@H](O)[C@H]1O [SAH]
KD [1]: NTD alone could bind SAH as effectively as full-length EcTrmJ

B1: Escherichia coli TrmJ (EcTrmJ), tRNA Xm32 methyltransferase, full-length (enzyme, Escherichia coli K-12 MG1655, UniProt P0AE01 1-246, looked up)
chain: MLQNIRIVLVETSHTGNMGSVARAMKTMGLTNLWLVNPLVKPDSQAIALAAGASDVIGNAHIVDTLDEALAGCSLVVGTSARSRTLPWPMLDPRECGLKSVAEAANTPVALVFGRERVGLTNEELQKCHYHVAIAANPEYSSLNLAMAVQVIAYEVRMAWLATQENGEQVEHEETPYPLVDDLERFYGHLEQTLLATGFIRENHPGQVMNKLRRLFTRARPESQELNILRGILASIEQQNKGNKAE
stoichiometry N [2]: 2
